In ChEMBL document CHEMBL5344475, “Indole-containing pharmaceuticals: targets, pharmacological activities, and SAR studies” (RSC Med Chem, 2024):

Experiments:
[1] = target: 5-hydroxytryptamine receptor 1B (Homo sapiens, UniProt P28222); test: Binding affinity to 5-HT1B receptor (unknown origin) assessed as inhibition constant
[2] = Cmax in human plasma; assay type: ADME, cell-free
[3] = Plasma clearance in iv dosed C57BL/6J mouse; assay type: ADME, organism-based
[4] = Terminal half life in human; assay type: ADME; conditions: read-out: beta t1/2 (converted)
[5] = Apparent oral clearance in human at 1 mg, po by LC-MS/MS analysis; assay type: ADME, organism-based; conditions: in vivo
[6] = Terminal half life in human at 10 mg/kg, iv; conditions: in vivo, read-out: beta t1/2 (converted)
[7] = Binding affinity to MT1 receptor (unknown origin) assessed as inhibition constant; set-up: species or system Homo sapiens
[8] = target: Prostaglandin G/H synthase 1 (Homo sapiens, UniProt P23219); test: Inhibition of COX1 (unknown origin)
Sequence of Prostaglandin G/H synthase 1 (P23219 whole entry): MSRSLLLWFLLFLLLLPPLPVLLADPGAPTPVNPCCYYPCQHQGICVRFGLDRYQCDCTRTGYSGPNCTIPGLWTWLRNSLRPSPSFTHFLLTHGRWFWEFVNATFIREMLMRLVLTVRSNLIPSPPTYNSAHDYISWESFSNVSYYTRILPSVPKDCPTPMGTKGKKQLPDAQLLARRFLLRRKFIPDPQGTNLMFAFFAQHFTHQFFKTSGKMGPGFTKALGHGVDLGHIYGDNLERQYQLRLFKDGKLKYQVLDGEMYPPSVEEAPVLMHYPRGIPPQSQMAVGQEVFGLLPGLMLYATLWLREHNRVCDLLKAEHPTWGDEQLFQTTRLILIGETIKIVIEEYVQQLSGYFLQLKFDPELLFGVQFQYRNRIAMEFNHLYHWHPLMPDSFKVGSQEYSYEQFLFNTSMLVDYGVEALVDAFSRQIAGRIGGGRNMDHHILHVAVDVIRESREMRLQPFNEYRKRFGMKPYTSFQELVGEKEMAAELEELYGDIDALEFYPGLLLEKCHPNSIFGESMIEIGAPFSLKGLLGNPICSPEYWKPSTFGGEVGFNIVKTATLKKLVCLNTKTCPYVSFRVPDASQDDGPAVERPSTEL

[9] = target: T1, Prostaglandin G/H synthase 2 (Homo sapiens, UniProt P35354); test: Inhibition of COX-2 (unknown origin) using arachidonic acid as substrate preincubated for 15 mins followed by substrate addition by colorimetric assay
T1 sequence (P35354 whole entry): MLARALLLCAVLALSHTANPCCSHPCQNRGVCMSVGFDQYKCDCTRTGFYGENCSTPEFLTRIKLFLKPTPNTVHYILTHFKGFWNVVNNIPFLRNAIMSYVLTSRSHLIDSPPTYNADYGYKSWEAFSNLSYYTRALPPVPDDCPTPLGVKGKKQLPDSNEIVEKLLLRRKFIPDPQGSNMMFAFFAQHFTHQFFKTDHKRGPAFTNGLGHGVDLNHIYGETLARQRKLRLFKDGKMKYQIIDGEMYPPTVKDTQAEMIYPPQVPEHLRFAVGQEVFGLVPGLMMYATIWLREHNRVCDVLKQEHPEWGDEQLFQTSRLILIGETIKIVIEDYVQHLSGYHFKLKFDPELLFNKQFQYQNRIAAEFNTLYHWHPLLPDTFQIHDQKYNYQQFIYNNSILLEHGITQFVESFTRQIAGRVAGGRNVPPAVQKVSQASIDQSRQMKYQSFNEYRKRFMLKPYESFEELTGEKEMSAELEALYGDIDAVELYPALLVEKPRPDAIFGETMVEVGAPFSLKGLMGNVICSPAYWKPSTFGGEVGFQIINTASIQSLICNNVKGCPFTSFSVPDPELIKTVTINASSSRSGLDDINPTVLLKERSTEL

[10] = Half life of compound in PBS buffer; assay type: physicochemical
[11] = Apparent oral clearance in human
[12] = Volume of distribution in Wistar rat; assay type: ADME; conditions: in vivo
[13] = Volume of distribution at steady state in iv dosed human; conditions: in vivo, read-out: Vdss
[14] = Plasma clearance in iv dosed human
[15] = Elimination half life in human; assay type: ADME; conditions: read-out: beta t1/2 (converted)
[16] = Oral bioavailability in human; assay type: ADME, organism-based; conditions: in vivo
[17] = Binding affinity to 5-HT3R (unknown origin) assessed as inhibition constant; set-up: species or system Homo sapiens
[18] = Elimination half life in human at 7.5 to 100 mg; assay type: ADME; conditions: dose 7.5-100 mg, read-out: beta t1/2 (converted)
[19] = Oral bioavailability in mouse; assay type: ADME, organism-based; conditions: in vivo
[20] = AUC in ICR mouse; assay type: ADME; conditions: in vivo
[21] = Apparent oral renal clearance in human; assay type: ADME; conditions: read-out: CL(app)
[22] = target: Dopamine receptor; test: Inhibition of dopamine receptor (unknown origin); assay type: protein assay, Homo sapiens
[23] = target: D(1A) dopamine receptor (Homo sapiens, UniProt P21728); test: Binding affinity to dopamine D1 receptor (unknown origin) assessed as inhibition constant
Sequence of D(1A) dopamine receptor (P21728 whole entry): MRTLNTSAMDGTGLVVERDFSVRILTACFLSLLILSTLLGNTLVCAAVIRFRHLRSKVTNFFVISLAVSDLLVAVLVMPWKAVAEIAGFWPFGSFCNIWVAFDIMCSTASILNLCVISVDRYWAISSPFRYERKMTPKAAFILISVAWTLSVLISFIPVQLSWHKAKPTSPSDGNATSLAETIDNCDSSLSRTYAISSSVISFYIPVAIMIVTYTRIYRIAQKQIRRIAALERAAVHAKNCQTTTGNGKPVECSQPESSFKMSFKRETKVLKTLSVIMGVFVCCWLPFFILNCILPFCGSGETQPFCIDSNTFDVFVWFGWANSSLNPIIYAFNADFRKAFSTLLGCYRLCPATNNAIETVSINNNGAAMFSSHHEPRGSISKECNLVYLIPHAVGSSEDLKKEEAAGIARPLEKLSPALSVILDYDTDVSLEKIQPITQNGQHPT

[24] = Half life in human; assay type: ADME
[25] = Tmax in human; assay type: ADME
[26] = Half life in human; conditions: in vivo
[27] = target: Beta-2 adrenergic receptor (Homo sapiens, UniProt P07550); test: Binding affinity to human beta 2 adrenergic receptor assessed as inhibition constant
Sequence of Beta-2 adrenergic receptor (P07550 whole entry): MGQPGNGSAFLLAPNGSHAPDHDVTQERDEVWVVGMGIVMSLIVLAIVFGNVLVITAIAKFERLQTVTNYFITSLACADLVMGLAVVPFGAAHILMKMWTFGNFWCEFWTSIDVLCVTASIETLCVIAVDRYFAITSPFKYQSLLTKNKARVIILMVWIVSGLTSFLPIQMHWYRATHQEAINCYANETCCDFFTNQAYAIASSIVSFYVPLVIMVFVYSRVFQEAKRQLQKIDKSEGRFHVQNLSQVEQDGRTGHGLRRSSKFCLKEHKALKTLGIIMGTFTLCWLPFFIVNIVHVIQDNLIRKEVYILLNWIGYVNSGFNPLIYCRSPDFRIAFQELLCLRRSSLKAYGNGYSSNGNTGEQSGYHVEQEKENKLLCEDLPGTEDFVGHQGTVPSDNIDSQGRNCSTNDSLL

[28] = target: 5-hydroxytryptamine receptor 2B (Homo sapiens, UniProt P41595); test: Binding affinity to 5-HT2B receptor (unknown origin) assessed as inhibition constant
Sequence of 5-hydroxytryptamine receptor 2B (P41595 whole entry): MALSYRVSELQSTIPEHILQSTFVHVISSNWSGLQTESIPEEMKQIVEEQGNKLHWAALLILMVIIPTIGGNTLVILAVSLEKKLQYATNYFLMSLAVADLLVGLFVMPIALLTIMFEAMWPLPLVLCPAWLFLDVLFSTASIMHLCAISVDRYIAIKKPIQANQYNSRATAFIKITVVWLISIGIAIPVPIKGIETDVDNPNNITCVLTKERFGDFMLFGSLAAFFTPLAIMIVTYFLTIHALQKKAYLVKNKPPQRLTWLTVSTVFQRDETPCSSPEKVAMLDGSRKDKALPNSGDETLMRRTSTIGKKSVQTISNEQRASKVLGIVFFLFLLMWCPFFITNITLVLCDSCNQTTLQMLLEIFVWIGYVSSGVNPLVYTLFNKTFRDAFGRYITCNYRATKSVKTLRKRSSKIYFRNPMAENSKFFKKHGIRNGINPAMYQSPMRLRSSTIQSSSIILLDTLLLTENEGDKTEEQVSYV

[29] = Terminal half life in iv dosed mouse; assay type: ADME, organism-based; conditions: in vivo, read-out: beta t1/2 (converted)
[30] = Volume of distribution in human; assay type: ADME
[31] = Elimination half life in rat; assay type: ADME; conditions: in vivo, read-out: beta t1/2 (converted)
[32] = Volume of distribution in human at 2.5 mg; assay type: ADME
[33] = Volume of distribution in human at 80 to 100 mg; assay type: ADME; conditions: dose 80-100 mg
[34] = Half life in human plasma; assay type: ADME, cell-free
[35] = Cmax in human at 4 mg, po; assay type: ADME; set-up: dose 4 mg, route po; conditions: in vivo
[36] = Tmax in human plasma; assay type: ADME, cell-free
[37] = AUC (0 to 24 hrs) in human at 40 mg, po by LC-MS/MS analysis; conditions: in vivo
[38] = Blood clearance in Wistar rat at 0.3 mg/kg, iv; assay type: ADME, organism-based
[39] = Volume of distribution at steady state in human; conditions: in vivo, read-out: Vdss
[40] = Plasma clearance in iv dosed human; conditions: in vivo
[41] = Initial half life in iv dosed mouse; conditions: in vivo, read-out: beta t1/2
[42] = Apparent oral clearance in human at 100 mg, po by LC-MS/MS analysis; assay type: ADME, organism-based; conditions: in vivo
[43] = target: 5-hydroxytryptamine receptor 1D (Homo sapiens, UniProt P28221); test: Binding affinity to 5-HT1DR (unknown origin) assessed as inhibition constant
Sequence of 5-hydroxytryptamine receptor 1D (P28221 whole entry): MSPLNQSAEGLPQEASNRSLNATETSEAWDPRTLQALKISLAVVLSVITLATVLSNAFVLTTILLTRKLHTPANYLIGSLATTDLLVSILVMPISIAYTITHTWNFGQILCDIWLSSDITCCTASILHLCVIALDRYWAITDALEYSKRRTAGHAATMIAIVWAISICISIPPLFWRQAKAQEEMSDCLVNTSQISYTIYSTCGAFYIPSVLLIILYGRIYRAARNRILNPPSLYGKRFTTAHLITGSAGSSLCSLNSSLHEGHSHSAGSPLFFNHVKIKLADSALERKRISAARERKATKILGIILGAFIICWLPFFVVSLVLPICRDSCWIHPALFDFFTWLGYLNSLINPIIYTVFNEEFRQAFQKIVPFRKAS

Sequence of 5-hydroxytryptamine receptor 1B (P28222 whole entry): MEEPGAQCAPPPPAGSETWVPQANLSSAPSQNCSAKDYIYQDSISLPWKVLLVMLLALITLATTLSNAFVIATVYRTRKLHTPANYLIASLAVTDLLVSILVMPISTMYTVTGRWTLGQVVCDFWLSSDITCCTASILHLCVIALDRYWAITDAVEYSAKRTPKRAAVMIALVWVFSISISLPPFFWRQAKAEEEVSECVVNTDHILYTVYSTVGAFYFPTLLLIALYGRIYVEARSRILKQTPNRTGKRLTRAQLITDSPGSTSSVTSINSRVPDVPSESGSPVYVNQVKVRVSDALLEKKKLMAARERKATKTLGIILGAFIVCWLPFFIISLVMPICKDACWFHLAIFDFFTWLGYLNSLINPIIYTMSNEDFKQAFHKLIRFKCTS

## CNS(=O)(=O)CCc1ccc2[nH]cc(C3CCN(C)CC3)c2c1
[1]
  Ki: 1.5 nM

## COc1ccc2[nH]c3c(c2c1)CCN[C@]31CS[C@@H]2c3c(OC(C)=O)c(C)c4c(c3[C@@H](COC1=O)N1[C@@H]2[C@H]2c3c(cc(C)c(OC)c3O)C[C@@H]([C@@H]1O)N2C)OCO4
[2]
  Cmax: 107000 ng/mL
[3]
  clearance: 183 mL/min
[4]
  half-life: 51 h

## CN1CC(=O)N2[C@H](c3ccc4c(c3)OCO4)c3[nH]c4ccccc4c3C[C@@H]2C1=O
[5]
  CL/F: 41.7 mL/min
[6]
  half-life: 17.5 h
[7]
  Ki: 1.2 nM

## COc1ccc2c(c1)c(CC(=O)OCC(=O)O)c(C)n2C(=O)c1ccc(Cl)cc1 [ACEMETACIN]
[8]
  IC50: 10 nM
[9]
  IC50: 10 nM
[10]
  half-life: 4.5 h

## CCc1cc2c(cc1N1CCC(N3CCOCC3)CC1)C(C)(C)c1[nH]c3cc(C#N)ccc3c1C2=O [ALECTINIB]
[11]
  CL/F: 1370 mL/min
[12]
  Vd: 4020 L

## Cc1[nH]cnc1CN1CCc2c(c3ccccc3n2C)C1=O [ALOSETRON]
[13]
  Vd: 65 L
[14]
  clearance: 600 mL/min
[15]
  half-life: 1.5 h
[16]
  bioavailability: 50%
[17]
  Ki: 0.5 nM

## CC(C)C[C@H]1C(=O)N2CCC[C@H]2[C@]2(O)O[C@](NC(=O)[C@@H]3C=C4c5cccc6[nH]c(Br)c(c56)C[C@H]4N(C)C3)(C(C)C)C(=O)N12 [BROMOCRIPTINE]
[18]
  half-life: 4.85 h
[19]
  bioavailability: 90%
[20]
  AUC: 2.38 ng·h/mL

## C=CCN1C[C@H](C(=O)N(CCCN(C)C)C(=O)NCC)C[C@@H]2c3cccc4[nH]cc(c34)C[C@H]21 [CABERGOLINE]
[21]
  CL renal: 80 mL/min
[22]
  EC50: 13 nM
[23]
  Ki: 1.4 nM

## CC(C(=O)O)c1ccc2c(c1)[nH]c1ccc(Cl)cc12 (stereo unspecified) [CARPROFEN]
[24]
  half-life: 8 h
[25]
  Tmax: 1 h

## COc1ccccc1OCCNCC(O)COc1cccc2[nH]c3ccccc3c12 (stereo unspecified) [CARVEDILOL]
[26]
  half-life: 7 h

## CC(C)[C@@]1(NC(=O)[C@@H]2C[C@@H]3c4cccc5[nH]cc(c45)C[C@H]3N(C)C2)O[C@@]2(O)[C@@H]3CCCN3C(=O)[C@H](Cc3ccccc3)N2C1=O [DIHYDROERGOCRISTINE]
[26]
  half-life: 3.5 h
[27]
  Ki: 2.4 nM

## CN1C[C@H](C(=O)N[C@]2(C)O[C@@]3(O)[C@@H]4CCCN4C(=O)[C@H](Cc4ccccc4)N3C2=O)C[C@@H]2c3cccc4[nH]cc(c34)C[C@H]21 [DIHYDROERGOTAMINE]
[28]
  Ki: 3.7 nM
[29]
  half-life: 9 h

## O=C(O[C@@H]1C[C@@H]2C[C@H]3C[C@H](C1)N2CC3=O)c1c[nH]c2ccccc12 [DOLASETRON]
[30]
  Vd: 5.8 L/kg

## CC(C)n1c(/C=C/C(O)CC(O)CC(=O)O)c(-c2ccc(F)cc2)c2ccccc21 (stereo unspecified) [FLUVASTATIN]
[30]
  Vd: 0.35 L/kg

## COc1ccc2c(c1)c(CC(=O)O)c(C)n2C(=O)c1ccc(Cl)cc1 [INDOMETHACIN]
[31]
  half-life: 7 h

## CCN(CC)C(=O)N[C@H]1C=C2c3cccc4[nH]cc(c34)C[C@H]2N(C)C1 [LISURIDE]
[18]
  half-life: 1.8 h
[32]
  Vd: 1.73 L/kg

## COc1ccc2[nH]cc(CCNC(C)=O)c2c1 [MELATONIN]
[15]
  half-life: 1 h
[7]
  Ki: 0.05 nM

## CC[C@@H](CO)NC(=O)[C@@H]1C=C2c3cccc4[nH]cc(c34)C[C@H]2N(C)C1 [METHYLERGONOVINE]
[26]
  half-life: 2.5 h
[33]
  Vd: 2.4 L/kg
[16]
  bioavailability: 40%

## CO[C@@H]1[C@H](N(C)C(=O)c2ccccc2)C[C@H]2O[C@]1(C)n1c3ccccc3c3c4c(c5c6ccccc6n2c5c31)C(=O)NC4 [MIDOSTAURIN]
[30]
  Vd: 95.2 L
[34]
  half-life: 21 h

## Cc1nccn1CC1CCc2c(c3ccccc3n2C)C1=O (stereo unspecified) [ONDANSETRON]
[28]
  Ki: 2.5 nM
[15]
  half-life: 3.1 h
[16]
  bioavailability: 56%

## Cc1[nH]c2ccccc2c1CCNCc1ccc(/C=C/C(=O)NO)cc1 [PANOBINOSTAT]
[11]
  CL/F: 2670 mL/min
[34]
  half-life: 37 h

## CCCN1C[C@H](CSC)C[C@@H]2c3cccc4[nH]cc(c34)C[C@H]21 [PERGOLIDE]
[19]
  bioavailability: 55%

## CC(C)NCC(O)COc1cccc2[nH]ccc12 (stereo unspecified) [PINDOLOL]
[26]
  half-life: 3 h
[33]
  Vd: 2 L/kg
[25]
  Tmax: 1 h

## O=C1NCCN1CCN1CCC(c2cn(-c3ccc(F)cc3)c3ccc(Cl)cc23)CC1 [SERTINDOLE]
[26]
  half-life: 53 h
[33]
  Vd: 20 L/kg
[16]
  bioavailability: 75%

## CCCCCNC(=N)N/N=C/c1c[nH]c2ccc(OC)cc12 [TEGASEROD]
[13]
  Vd: 368 L
[6]
  half-life: 11 h
[14]
  clearance: 1280 mL/min

## CN1[C@@H]2CC[C@H]1C[C@@H](OC(=O)c1c[nH]c3ccccc13)C2 [TROPISETRON]
[34]
  half-life: 5 h
[16]
  bioavailability: 60%

## CCOC(=O)c1c(CSc2ccccc2)n(C)c2cc(Br)c(O)c(CN(C)C)c12 [UMIFENOVIR]
[34]
  half-life: 17 h
[35]
  Cmax: 415 ng/mL
[36]
  Tmax: 0.65 h

## N#Cc1ccc2[nH]cc(CCCCN3CCN(c4ccc5oc(C(N)=O)cc5c4)CC3)c2c1 [VILAZODONE]
[2]
  Cmax: 156 ng/mL
[37]
  AUC: 1640 ng·h/mL
[4]
  half-life: 25 h

## CC[C@]1(O)C[C@@H]2CN(CCc3c([nH]c4ccccc34)[C@@](C(=O)OC)(c3cc4c(cc3OC)N(C)[C@H]3[C@@](O)(C(=O)OC)[C@H](OC(C)=O)[C@]5(CC)C=CCN6CC[C@]43[C@@H]65)C2)C1 [VINBLASTINE]
[29]
  half-life: 1.6 h

## CC[C@]12C=CCN3CC[C@@]4(c5cc([C@@]6(C(=O)OC)C[C@@H]7C[C@@H](C(C)(F)F)CN(Cc8c6[nH]c6ccccc86)C7)c(OC)cc5N(C)[C@H]4[C@@](O)(C(=O)OC)[C@@H]1OC(C)=O)[C@@H]32 [VINFLUNINE]
[38]
  clearance: 667 mL/min

## CCC1=C[C@@H]2CN(C1)Cc1c([nH]c3ccccc13)[C@@](C(=O)OC)(c1cc3c(cc1OC)N(C)[C@H]1[C@@](O)(C(=O)OC)[C@H](OC(C)=O)[C@]4(CC)C=CCN5CC[C@]31[C@@H]54)C2 [VINORELBINE]
[6]
  half-life: 27.7 h
[39]
  Vd: 25.4 L/kg
[29]
  half-life: 24.8 h
[40]
  clearance: 16.2 mL/min/kg

## COC(=O)[C@@H]1[C@H]2C[C@H]3c4[nH]c5ccccc5c4CCN3C[C@@H]2CC[C@@H]1O [YOHIMBINE]
[15]
  half-life: < 1 h
[41]
  half-life: 3.7 min

## COc1cc(C(=O)NS(=O)(=O)c2ccccc2C)ccc1Cc1cn(C)c2ccc(NC(=O)OC3CCCC3)cc12 [ZAFIRLUKAST]
[42]
  CL/F: 333 mL/min

## CN(C)CCc1c[nH]c2ccc(C[C@H]3COC(=O)N3)cc12 [ZOLMITRIPTAN]
[1]
  Ki: 0.4 nM
[43]
  Ki: 0.4 nM
